In the case of `Nc1cccc(C#Cc2ccc(OC3CN4CCC3CC4)nn2)c1` (racemic) [Compound C7, (±)-3-[6-(1-Aza-bicyclo[2.2.2]oct-3-yloxy)-pyridazin-3-ylethynyl]-phenylamine free base], the melting point lay in the range of 152.4 to 158.1 °C.

For the compound `C(#Cc1ccc(OC2CN3CCC2CC3)cc1)c1ccccc1.O=C(O)/C=C/C(=O)O` (racemic), the melting point fell in the range of 126.9 to 127.3 °C.

With `C(#Cc1ccc(OC2CN3CCC2CC3)nn1)c1ccsc1.O=C(O)/C=C/C(=O)O` (racemic) [Compound C10, (±)-3-(6-Thiophen-3-ylethynyl-pyridazin-3-yloxy)-1-aza-bicyclo[2.2.2]octane fumaric acid salt], the melting point is 133.9 to 141.6 °C.

Regarding `Nc1ccc(C#Cc2ccc(OC3CN4CCC3CC4)nn2)cc1` (racemic) [Compound C8, (±)-4-[6-(1-Aza-bicyclo[2.2.2]oct-3-yloxy)-pyridazin-3-ylethynyl]-phenylamine free base], the melting point is 212 to 220 °C.

`CC(=O)Nc1ccc(C#Cc2ccc(OC3CN4CCC3CC4)nn2)cc1` (racemic) [Compound C6, (±)-N-{4-[6-(1-Aza-bicyclo[2.2.2]oct-3-yloxy)-pyridazin-3-ylethynyl]-phenyl}-acetamide free base] came in with a melting point of 169.5 to 175.4 °C.

What is called melting point is the temperature of the solid-liquid transition.
